Laboratory results taken from PubChem BioAssay (NCI).
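In this assay, cells in 96-well plates receive the compound at five concentrations for 48 hours. Endpoints are linearly interpolated between the surrounding concentrations. At the GI50, growth is halved. TGI: concentration producing complete growth inhibition.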

Legend:
Experiment in all cases: inhibition of tumour cell growth, NCI panel, 48 h
CCRF-CEM leukemia = tested on: CCRF-CEM leukemia
HL-60(TB) leukemia = tested on: HL-60(TB) leukemia
MDA-MB-231 breast = tested on: MDA-MB-231 breast
NCI-H460 lung = tested on: NCI-H460 lung
OVCAR-8 ovarian = tested on: OVCAR-8 ovarian
SR leukemia = tested on: SR leukemia
UACC-62 melanoma = tested on: UACC-62 melanoma
UO-31 renal = tested on: UO-31 renal

Compound	GI50 (CCRF-CEM leukemia) [nM]	TGI (CCRF-CEM leukemia) [µM]	GI50 (HL-60(TB) leukemia) [nM]	TGI (HL-60(TB) leukemia) [µM]	GI50 (MDA-MB-231 breast) [µM]	TGI (MDA-MB-231 breast) [µM]	GI50 (NCI-H460 lung) [nM]	TGI (NCI-H460 lung) [µM]	GI50 (OVCAR-8 ovarian) [nM]	TGI (OVCAR-8 ovarian) [µM]	GI50 (SR leukemia) [µM]	TGI (SR leukemia) [µM]	GI50 (UACC-62 melanoma) [µM]	TGI (UACC-62 melanoma) [µM]	GI50 (UO-31 renal) [µM]	TGI (UO-31 renal) [µM]
CCc1ccccc1-n1c(N)c(C#N)c(-c2ccc(OC)c(OC)c2)c(C#N)c1=O	> 100000	> 100	> 100000	> 100	17.1	35.8	19300	38.5	18500	37.6	15	> 100	16.3	37.7	25.5	> 100
Cc1c(N2C(=O)/C(=C\c3ccc(N(C)C)cc3)N=C2c2ccccc2)c(=O)n(-c2ccccc2)n1C			40200	> 100	> 82.9	> 100	62900	> 100	83900	> 100	58.8	> 100	> 100	> 100	40.6	> 100
Cc1cc2nc3c4ccccc4n(CCN(C)C)c3nc2cc1C	1990	13.6	1990	6.26	1.76	9.91	709	9.1	1160	12.4			1.43	2.82	0.726	14.5
O=C1c2ccccc2C(=O)c2c(NC(=O)c3ccc4c5c(ncnc35)-c3ccccc3C4=O)cccc21						> 100		> 100		> 100		> 100		> 100		> 100
C=C(C)[C@@H]1CC[C@]2(C)[C@H](C=CC3=C4C[C@@](C)(CO)CC[C@]4(C)CC[C@]32C)[C@@]1(C)CCCN	2120	5.56			1.77	3.27	1710	3.33	2130	4.61			1.78	3.17	1.34	2.65
NC(=O)NC(=O)C1CCCCC1C(=O)O (configuration not stated)		> 100		> 100		> 100		> 100		> 100				> 100		> 100
COc1cccc(Nc2nccc(Nc3ccc4[nH]ncc4c3)n2)c1	901	4.56	1530	3.56			1640	4.17	1670	4.39	1.34	4.93				
CC(=O)/C=C/C1=C(c2ccsc2)c2ccccc2CC1	23600	47.6			19.3	49.4	34400	> 100	18200	39.3			16.2	37.1	19.4	43.6
CC[O-].CC[O-].O=C([CH-]C(=O)c1ccccc1)c1ccccc1.O=C([CH-]C(=O)c1ccccc1)c1ccccc1.[Ti+4]			25300	> 100			44300	> 100	79400	> 100	62.4	> 100	> 100	> 100	> 100	> 100
CC(C)N(C[C@H]1O[C@@H](n2cnc3c(N)ncnc32)[C@H](O)[C@@H]1O)C1CC(CCc2nc3ccc(C(C)(C)C)cc3[nH]2)C1 (some centres not stated)	> 49300	> 84.4	> 65900	> 100	69.8	> 100	> 100000	> 100	> 100000	> 100			99.7	> 100	> 100	> 100
COc1cnc2c(c1)C(=O)c1c-2n(CCCN2CCN(CCO)CC2)c(=O)c2cc([N+](=O)[O-])ccc12	494	> 100	1690	5.27	1.81	3.74	267	1.45	1390	5.03			1.22	3.16	3.32	20.8
Oc1[nH]c2ccc(Cl)cc2c1/C=c1/ccc2c(c1)N=C(c1cc(F)cc(F)c1)N=2			3390	7.23	3.85	> 100					2.98	7.95	3.43	> 100	87.3	> 100
CCNCCNc1cc(-c2cccc(C(F)(F)F)c2)c(C#N)c2nc3ccccc3n12	290	0.798	2230	4.21	1.67	3.29	457	1.81	1690	3.23			1.69	3.2	0.603	2.07
COc1cc2c3c(c1O)C1(C=CC(=O)C=C1)CC3N(C)CC2 (configuration not stated)		13.8		10.9		17.4		18.3		38.4		25.8		23.1		
